Data published in patent publication US4010193A, “Basic ester” (Chinoin Gyogyszer-es Vegyeszeti Termekek Gyara RT, priority 1972, dated 1977).
Structures can show the parent of a compound that is named as a salt.

Legend:
dogs [1] = experiment: Toxicity on dogs (own investigations); type: in vivo
rats = experiment: Acute toxicity on rats; type: in vivo; details: own investigations
Protocol: (§1) Acute toxicity is measured on rats weighing 150-200 g. The test-compound is injected into the tail wein, within a period of not more, than 5 seconds in a volume of 0.2 ml/100 g. The LD50 -value and the confidentiality limits thereof are evaluated on the basis of the number of animals died within 24 hours. See (J. Pharmacol. Exper. Ther. 96, 89 (1948))

dogs [2] = experiment: ECG (EKG) disturbances in dogs; type: in vivo; details: dose which exhibits a coronary dilatory effect
[3] = system: isolated ischiadicus nerves; experiment: Local anaesthetic effect on isolated ischiadicus nerves of frogs; details: for ED50 (dose reducing by 50% the amplitude of the action-potential): isolated ischiadicus nerves of frogs
Protocol: 4. Local anaesthetical effect The local anaesthetic effect being characteristic of the majority of antiarrhythmical agents is tested on isolated ischiadicus nerves of frogs. The dose reducing by 50% the amplitude of the action-potential induced by stimulation of the nerves is considered as the rate (ED50) of the local anaesthetic effect.

isolated left atrium = experiment: Effect on electro-physiological characteristics of isolated left atria of rabbits (electric threshold, velocity of stimulus-transmission, maximal driving frequency)
Protocol: (§2) 3. effect on the electro-physiological characteristics of isolated right and left atria of rabbits
(§3) Rabbits are killed by blows on the napeon; the isolated right atrium which is surviving in a Locke-solution having a temperature of 32° C the spontane frequency and on the isolated left atrium the electric threshold, the velocity of stimulus-transmission and the maximal driving frequency is determined. (Detailed description of the test: see L. Szekeres and Gy. Papp: "Experimental cardiac arrhythmias and antiarrhythmic drugs." Publishing House of the Hungarian Academy of Sciences, Budapest, 1971). Upon the effect of the rising concentrations of the various test compounds, the increase of the electric threshold indicates the reduction of myocardial stimulability and the decrease of the maximal driving frequency indicates the prolongation of the refractory period.

Acute toxicity on rats = type: in vivo; details: rat, in vivo, iv, tail vein injection, deaths within 24 hours, confidence 95 %
Protocol: as §1

right ventriculum = experiment: Ventricular antifibrillatory effect on cats (ventricular fibrillation threshold); type: in vivo
Protocol: (§4) On dogs anaesthetized with Nembutal (25 mg/kg) (iv.) disturbance of the cardiac rhythm was produced by the slow intravenous infusion of 40 - 80 μg/kg of strophantine, the latter amount depending on the sensibility of the animals. After the appearance of cumulated ventricular extrasystolae the test-compounds are intravenously injected in increasing doses and the arrhythmia antagonizing effect is regarded as positive, if the rhythm disturbance reappears after the cessation of the drug effect. Atrial and ventricular antifibrillatory effect on cats
(§5) In cats anaesthetized with an urethane mixture (60/300 mg/kg i.p.) the right atrium and the right ventriculum is irritated through a dipolar silver electrode with 20 Hz rectangular electric stimuli of […]. The threshold intensity (i.e. fibrillation threshold value) just eliciting the fibrillation of the ventriculum is determined. The capacity of the compounds to elevate the fibrillation threshold when administered intravenously is tested. (British J. Pharmacol. 17, 167, 1961).

isolated right atrium = experiment: Effect on spontaneous frequency of isolated right atria of rabbits
Protocol: as §2, §3

right atrium = experiment: Atrial antifibrillatory effect on cats (atrial fibrillation threshold); type: in vivo
Protocol: as §4, §5

strophantine arrhythmia = experiment: Antagonism of strophantine arrhythmia on dogs; type: in vivo
Protocol: 1. Antagonism of strophantine arrhythmia on dogs
as §4

| Structure (SMILES) | Maximal driving frequency/min, changed value (isolated left atrium; 5 mg./l.) | Velocity of stimulus-transmission, changed value (isolated left atrium; 5 mg./l.) | Velocity of stimulus-transmission, deviation from basic value (isolated left atrium; 5 mg./l.) | Electric stimulus threshold, changed value (isolated left atrium; 5 mg/l.) | Maximal driving frequency/min, changed value (isolated left atrium; 10 mg./l.) | Velocity of stimulus-transmission, changed value (isolated left atrium; 10 mg./l.) | Velocity of stimulus-transmission, deviation from basic value (isolated left atrium; 10 mg./l.) | Electric stimulus threshold, changed value (isolated left atrium; 10 mg/l.) | LD50 at 24 h (Acute toxicity on rats) | ED50 (dose reducing by 50% the amplitude of the action-potential) [3] | Ventricular fibrillation threshold, changed value (right ventriculum; 2 mg/kg iv.) | Spontaneous frequency/min., changed value (isolated right atrium; 5 mg/l.) | Spontaneous frequency/min., changed value (isolated right atrium; 10 mg/l.) | Atrial fibrillation threshold, changed value (right atrium; 2 mg/kg iv.) | Period of antagonising strophantine arrhythmia (strophantine arrhythmia; dose 2 mg/kg. i.v.) | Ventricular fibrillation threshold, changed value (right ventriculum; 4 mg/kg iv.) | Ventricular fibrillation threshold, changed value (right ventriculum; 6 mg/kg iv.) | Atrial fibrillation threshold, changed value (right atrium; 4 mg/kg iv.) | Atrial fibrillation threshold, changed value (right atrium; 6 mg/kg iv.) | further results |
| --- | --- | --- | --- | --- | --- | --- | --- | --- | --- | --- | --- | --- | --- | --- | --- | --- | --- | --- | --- | --- |
| COc1cc(C(=O)OCCCNCCC(c2ccccc2)c2ccccc2)cc(OC)c1OC.Cl [3-(3,3-diphenyl-propylamino)-propyl-3,4,5-trimethoxy-benzoate-hydrochloride, reference compound] |  |  |  |  |  |  |  |  |  |  |  |  |  |  |  |  |  |  |  | toxicity relative to the compounds of the Formula I, dogs (dogs [1]): significantly more toxic than the compounds of the Formula I; toxicity relative to the compounds of the Formula I, rats (rats): significantly more toxic than the compounds of the Formula I; ECG (EKG) disturbances (dogs [2]): often caused ECG (EKG) disturbances; wash-out from isolated frog nerve ([3]; isolated frog nerve): cound not be washed out from isolated frog nerve |
| COc1cc(C(=O)OCCNC(C)c2ccccc2)cc(OC)c1OC (centres unmarked) [Compound 1, N-2-ethyl-1-phenyl-ethylamino-3,4,5,-trimethoxy-benzoate-hydrochloride] | 267 min⁻¹ | 0.34 m/sec | -15% | 0.32 mA | 280 min⁻¹ | 0.43 m/sec | -17% | 0.21 mA | 28 mg/kg | 710 mg/L | 0.97 mA | 121 min⁻¹ | 115 min⁻¹ | 1.02 mA | 213 s |  |  |  |  | Period of antagonising strophantine arrhythmia (strophantine arrhythmia; dose 4 mg/kg. i.v.): 260 s |
| COc1cc(C(=O)OCCNC(C)C)cc(OC)c1OC [Compound 2] | 334 min⁻¹ | 0.32 m/sec | -18% | 0.39 mA | 251 min⁻¹ | 0.32 m/sec | -27% | 0.62 mA | 57 mg/kg | 570 mg/L | 0.82 mA | 134 min⁻¹ | 120 min⁻¹ | 0.66 mA | 287 s | 0.99 mA | 1.46 mA | 0.90 mA | 0.89 mA | Period of antagonising strophantine arrhythmia (strophantine arrhythmia; dose 0,5 mg/kg. i.v.): 145 s; Period of antagonising strophantine arrhythmia (strophantine arrhythmia; dose 1 mg/kg. i.v.): 228 s |
| COc1cc(C(=O)OCCNC2CCCCC2)cc(OC)c1OC [Compound 3, N-2-ethyl-cyclohexylamino-3,4,5-trimethoxy-benzoate-hydrochloride] | 264 min⁻¹ | 0.34 m/sec | -40% | 0.31 mA | 226 min⁻¹ | 0.20 m/sec | -54% | 1.71 mA | 29 mg/kg | 450 mg/L | 1.02 mA | 136 min⁻¹ | 120 min⁻¹ | 0.95 mA |  | 1.19 mA | 1.68 mA | 1.02 mA | 1.18 mA | Maximal driving frequency/min, changed value (isolated left atrium; 1 mg./l.): 352 min⁻¹; Velocity of stimulus-transmission, changed value (isolated left atrium; 1 mg./l.): 0.49 m/sec; Electric stimulus threshold, changed value (isolated left atrium; 1 mg/l.): 0.26 mA; Electric stimulus threshold, deviation from basic value (isolated left atrium; 10 mg/l., in %): +217 /3/; Ventricular fibrillation threshold, deviation from basic value (right ventriculum; 6 mg/kg iv.): +121%; Spontaneous frequency/min., changed value (isolated right atrium; 1 mg/l.): 116 min⁻¹ |
